For experiment [1], the target named is T1, FGF-R4 ECD (Homo sapiens, UniProt P22455).
T1 construct: DNA constructs for the extracellular domain (ECD) of human FGF-; HPC4 (C); made in house; host or cells: HEK 293-6E
T1 sequence (P22455 22-369 limits assumed): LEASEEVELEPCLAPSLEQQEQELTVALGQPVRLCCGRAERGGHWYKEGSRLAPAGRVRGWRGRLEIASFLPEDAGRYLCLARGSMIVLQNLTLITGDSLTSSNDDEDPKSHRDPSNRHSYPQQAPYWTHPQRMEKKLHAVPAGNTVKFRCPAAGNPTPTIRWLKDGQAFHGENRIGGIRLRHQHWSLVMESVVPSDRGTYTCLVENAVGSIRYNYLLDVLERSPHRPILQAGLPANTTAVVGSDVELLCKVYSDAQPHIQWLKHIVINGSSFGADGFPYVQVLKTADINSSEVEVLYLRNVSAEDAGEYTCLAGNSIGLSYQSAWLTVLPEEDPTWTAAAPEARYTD
In words: multi-concentration BLI of purified peptides. Type of experiment: binding. The settings on record: purified trimer-18 library peptides. How it is done:
(§1) KD affinity binding measurements were obtained by biolayer interferometry (BLI) instruments (Fortebio Octet HTX, or Sartorius Octet RH16 using either 8 or 16 channel mode.
(§2) For single concentration binding experiments, 50 μM peptide stocks in folding buffer were diluted 1:50 in mRNA display selection buffer (PBS pH7.4 supplemented with 0.05% Tween-20 and 0.01% BSA) in either a 96 well black plate, or a 384 well tilted bottom microplate (ForteBio). Biotinylated FGF-R protein was loaded onto Streptavidin-functionalised biosensors (ForteBio) and immersed into ~1 μM peptide to obtain association kinetics curves. Dissociation kinetics curves were obtained by subsequent immersion of ligand-associated loaded sensors into a 1:50 dilution of folding buffer in mRNA display selection buffer. Fitted KD data was adjusted for concentration as determined by UPLC-CAD.
(§3) For accurate multi-concentration KD determination, dilution series of each peptide were made, and association and dissociation kinetics curves were obtained as above for each concentration to fit a multi-point KD binding model. Data collection and analysis was performed using the Octet Instrument Control […]
(§4) concentration assay kinetics curves shown in supplementary Figure S 19-24.

Experiment [2] deals with T1, FGF-R4 ECD. As to the kind of experiment: single concentration BLI of crude peptides. The format is binding. The note with it: crude T18 selection 1 (1:1:1) peptides, single concentration BLI (Table S4); read-out: KD (4). The method in brief:
(§5)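 Streptavidin biosensors carrying biotinylated FGF receptor ECD were immersed in peptide (~1 μM for crude single-point runs, a concentration series for purified peptides) and then in peptide-free buffer. KD was obtained by fitting the BLI association and dissociation curves.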

For experiment [3], the target named is T2, FGF-R3C ECD (Homo sapiens, UniProt P22607).
T2 sequence (P22607 23-375 limits assumed): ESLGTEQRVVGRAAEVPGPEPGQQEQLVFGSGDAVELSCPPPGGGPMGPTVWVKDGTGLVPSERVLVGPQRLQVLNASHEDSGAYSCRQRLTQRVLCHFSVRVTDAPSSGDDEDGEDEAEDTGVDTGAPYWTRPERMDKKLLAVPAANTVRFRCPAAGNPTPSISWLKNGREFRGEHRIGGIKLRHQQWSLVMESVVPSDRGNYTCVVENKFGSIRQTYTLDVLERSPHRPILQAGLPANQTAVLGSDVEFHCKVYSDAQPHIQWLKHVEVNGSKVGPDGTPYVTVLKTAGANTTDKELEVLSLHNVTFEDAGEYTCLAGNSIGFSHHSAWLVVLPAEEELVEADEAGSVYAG
As to the kind of experiment: biochemical. Details: DNA constructs for the extracellular domain (ECD) of human FGF-; HPC4 (C); made in house; host or cells: HEK 293-6E. The format is binding. The method in brief: as §5

Experiment [4] deals with T3, FGF-R1C ECD (Homo sapiens, UniProt P11362).
T3 sequence (P11362 22-376 limits assumed): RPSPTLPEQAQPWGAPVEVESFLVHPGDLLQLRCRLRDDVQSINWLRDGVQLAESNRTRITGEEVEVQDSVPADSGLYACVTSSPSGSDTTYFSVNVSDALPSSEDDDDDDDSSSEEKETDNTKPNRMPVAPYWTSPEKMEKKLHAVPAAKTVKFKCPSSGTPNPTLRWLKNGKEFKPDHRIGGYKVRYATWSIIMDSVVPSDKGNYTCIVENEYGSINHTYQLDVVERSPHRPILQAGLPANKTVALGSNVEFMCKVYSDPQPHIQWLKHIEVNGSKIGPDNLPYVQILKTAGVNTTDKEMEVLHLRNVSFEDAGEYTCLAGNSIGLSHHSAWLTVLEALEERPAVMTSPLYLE
As to the kind of experiment: biochemical. Type of experiment: binding. On the set-up: DNA constructs for the extracellular domain (ECD) of human FGF-; HPC4 (C); made in house; host or cells: HEK 293-6E. The method in brief: as §5

In experiment [5] the target is T2, FGF-R3C ECD. As to the kind of experiment: biochemical. The method, then:
as §1, §2, §3, §4

The target of experiment [6] is T3, FGF-R1C ECD. As to the kind of experiment: biochemical. How it is done: as §1, §2, §3, §4

Structures are written as SMILES. Like-named read-outs stand apart in the source and are kept apart here.

As a reminder, the Kd is the equilibrium constant for the complex coming apart. In the case of `CSCC[C@H](NC(C)=O)C(=O)N[C@H]1CSSC[C@@H](C(=O)NCC(=O)N[C@@H](CO)C(=O)NCC(=O)N[C@@H](CO)C(=O)N[C@@H](CCC(=O)O)C(=O)N[C@@H](CCC(=O)O)C(=O)NCC(=O)N[C@@H](CO)C(=O)NCC(=O)N[C@@H](CO)C(=O)N[C@@H](CC(=O)O)C(=O)N[C@@H](Cc2ccc(O)cc2)C(=O)N[C@@H](CCCCN)C(=O)N[C@@H](CC(=O)O)C(=O)N[C@@H](CC(=O)O)C(=O)N[C@@H](CC(=O)O)C(=O)N[C@@H](CC(=O)O)C(=O)N[C@@H](CCCCN)C(N)=O)NC(=O)[C@H](CCCCN)NC(=O)[C@H](CCCCN)NC(=O)[C@H](Cc2c[nH]c3ccccc23)NC(=O)[C@H](CC(C)C)NC(=O)[C@H](CC(C)C)NC(=O)[C@H](Cc2ccc(O)cc2)NC(=O)[C@H](Cc2ccc(O)cc2)NC(=O)[C@H](Cc2ccc(O)cc2)NC(=O)[C@H](CC(C)C)NC(=O)[C@H](Cc2c[nH]cn2)NC(=O)[C@H](CCCCN)NC1=O` [4.10], the Kd on FGF-R4 ECD [1] was 0.002 µM; on FGF-R4 ECD [2], 0.001 µM; at FGF-R3C ECD [3] (read-out: KD(3C)), 0.928 µM; at FGF-R1C ECD [4] (read-out: KD (1C)), 1.03 µM; on FGF-R3C ECD [5] (read-out: R3C KD, purified trimer-18 library peptides, multi-concentration BLI), 0.519 µM; on FGF-R1C ECD [6] (read-out: R1C KD, purified trimer-18 library peptides, multi-concentration BLI) it was more than 1 µM.

Regarding `CSCC[C@H](NC(C)=O)C(=O)N[C@H]1CSSC[C@@H](C(=O)NCC(=O)N[C@@H](CO)C(=O)NCC(=O)N[C@@H](CO)C(=O)N[C@@H](CC(=O)O)C(=O)N[C@@H](Cc2ccc(O)cc2)C(=O)N[C@@H](CCCCN)C(=O)N[C@@H](CC(=O)O)C(=O)N[C@@H](CC(=O)O)C(=O)N[C@@H](CC(=O)O)C(=O)N[C@@H](CC(=O)O)C(=O)N[C@@H](CCCCN)C(N)=O)NC(=O)[C@H](Cc2c[nH]cn2)NC(=O)[C@H](CCCNC(=N)N)NC(=O)[C@H](CC(C)C)NC(=O)[C@H](C(C)C)NC(=O)[C@H](CCCCN)NC(=O)[C@H](Cc2ccc(O)cc2)NC(=O)[C@H](CC(C)C)NC(=O)[C@H](CC(C)C)NC(=O)[C@H](C(C)C)NC(=O)[C@H](CC(N)=O)NC1=O` [4.11], the Kd on FGF-R4 ECD [1] is 0.543 µM; at FGF-R4 ECD [2], 0.011 µM; at FGF-R3C ECD [3], more than 10 µM; at FGF-R1C ECD [4], more than 10 µM; on FGF-R3C ECD [5] it was 0.115 µM; at FGF-R1C ECD [6], more than 1 µM.

`CSCC[C@H](NC(C)=O)C(=O)N[C@H]1CSSC[C@@H](C(=O)NCC(=O)N[C@@H](CO)C(=O)NCC(=O)N[C@@H](CO)C(=O)N[C@@H](CC(=O)O)C(=O)N[C@@H](Cc2ccc(O)cc2)C(=O)N[C@@H](CCCCN)C(=O)N[C@@H](CC(=O)O)C(=O)N[C@@H](CC(=O)O)C(=O)N[C@@H](CC(=O)O)C(=O)N[C@@H](CC(=O)O)C(=O)N[C@@H](CCCCN)C(N)=O)NC(=O)[C@H](C(C)C)NC(=O)[C@H](Cc2c[nH]c3ccccc23)NC(=O)[C@H](Cc2c[nH]c3ccccc23)NC(=O)[C@H](CC(C)C)NC(=O)[C@H](CCCCN)NC(=O)[C@H](Cc2c[nH]c3ccccc23)NC(=O)[C@H](CCCNC(=N)N)NC(=O)[C@H](Cc2ccc(O)cc2)NC(=O)[C@H](C)NC(=O)[C@H](CC(=O)O)NC(=O)[C@H](CO)NC(=O)[C@H](CCC(=O)O)NC1=O` [4.12]: the Kd at FGF-R4 ECD [1] is 0.015 µM; on FGF-R4 ECD [2], 0.01 µM; at FGF-R3C ECD [3], more than 10 µM; on FGF-R1C ECD [4] it was 1.57 µM; on FGF-R3C ECD [5] it was more than 1 µM; at FGF-R1C ECD [6], more than 1 µM.

Regarding `CSCC[C@H](NC(C)=O)C(=O)N[C@H]1CSSC[C@@H](C(=O)NCC(=O)N[C@@H](CO)C(=O)NCC(=O)N[C@@H](CO)C(=O)N[C@@H](CC(=O)O)C(=O)N[C@@H](Cc2ccc(O)cc2)C(=O)N[C@@H](CCCCN)C(=O)N[C@@H](CC(=O)O)C(=O)N[C@@H](CC(=O)O)C(=O)N[C@@H](CC(=O)O)C(=O)N[C@@H](CC(=O)O)C(=O)N[C@@H](CCCCN)C(N)=O)NC(=O)[C@H](CC(C)C)NC(=O)[C@H](CCC(N)=O)NC(=O)[C@H](Cc2c[nH]c3ccccc23)NC(=O)[C@H](CCCCN)NC(=O)[C@H](CCC(=O)O)NC(=O)[C@H](Cc2c[nH]c3ccccc23)NC(=O)[C@H](CC(N)=O)NC(=O)[C@H](Cc2ccc(O)cc2)NC(=O)[C@H](Cc2ccccc2)NC(=O)[C@H](CCCNC(=N)N)NC(=O)[C@H]([C@@H](C)O)NC(=O)[C@H](Cc2ccc(O)cc2)NC1=O` [4.13], the equilibrium dissociation constant (Kd) is more than 1 µM at FGF-R4 ECD [1]; more than 10 µM on FGF-R4 ECD [2]; more than 10 µM on FGF-R3C ECD [3]; 0.017 µM on FGF-R1C ECD [4]; more than 1 µM at FGF-R3C ECD [5]; more than 1 µM at FGF-R1C ECD [6].

In the case of `CC[C@H](C)[C@@H]1NC(=O)[C@H](CCCCN)NC(=O)[C@H](CO)NC(=O)[C@H](CC(N)=O)NC(=O)[C@@H]2CCCN2C(=O)[C@@H]2CCCN2C(=O)[C@H](CCCNC(=N)N)NC(=O)[C@H](Cc2c[nH]cn2)NC(=O)[C@H](Cc2ccc(O)cc2)NC(=O)[C@@H](NC(=O)[C@H](CCSC)NC(C)=O)CSSC[C@@H](C(=O)NCC(=O)N[C@@H](CO)C(=O)NCC(=O)N[C@@H](CO)C(=O)N[C@@H](CC(=O)O)C(=O)N[C@@H](Cc2ccc(O)cc2)C(=O)N[C@@H](CCCCN)C(=O)N[C@@H](CC(=O)O)C(=O)N[C@@H](CC(=O)O)C(=O)N[C@@H](CC(=O)O)C(=O)N[C@@H](CC(=O)O)C(=O)N[C@@H](CCCCN)C(N)=O)NC(=O)[C@H](CCCCN)NC(=O)[C@H](CCCNC(=N)N)NC(=O)[C@H](Cc2c[nH]c3ccccc23)NC1=O` [4.14], the Kd is 0.524 µM at FGF-R4 ECD [1]; 0.214 µM at FGF-R4 ECD [2]; more than 10 µM on FGF-R3C ECD [3]; more than 10 µM on FGF-R1C ECD [4]; more than 1 µM on FGF-R3C ECD [5]; more than 1 µM on FGF-R1C ECD [6].

As to `CSCC[C@H](NC(C)=O)C(=O)N[C@H]1CSSC[C@@H](C(=O)NCC(=O)N[C@@H](CO)C(=O)NCC(=O)N[C@@H](CO)C(=O)N[C@@H](CC(=O)O)C(=O)N[C@@H](Cc2ccc(O)cc2)C(=O)N[C@@H](CCCCN)C(=O)N[C@@H](CC(=O)O)C(=O)N[C@@H](CC(=O)O)C(=O)N[C@@H](CC(=O)O)C(=O)N[C@@H](CC(=O)O)C(=O)N[C@@H](CCCCN)C(N)=O)NC(=O)[C@H]([C@@H](C)O)NC(=O)[C@H](C(C)C)NC(=O)[C@H](CC(C)C)NC(=O)[C@H](CC(C)C)NC(=O)[C@H](Cc2c[nH]c3ccccc23)NC(=O)[C@H](Cc2ccc(O)cc2)NC(=O)[C@H](CC(C)C)NC(=O)[C@H](C(C)C)NC(=O)[C@H](CCC(=O)O)NC(=O)[C@H](CCCNC(=N)N)NC(=O)[C@H](CCC(=O)O)NC1=O` [4.15], the Kd at FGF-R4 ECD [1] is 0.378 µM; on FGF-R4 ECD [2], 0.128 µM; at FGF-R3C ECD [3] it was more than 10 µM; at FGF-R1C ECD [4], 0.048 µM; at FGF-R3C ECD [5] it was more than 1 µM; at FGF-R1C ECD [6], more than 1 µM.

Values taken from article PMC10763615, “Identification and engineering of potent cyclic peptides with selective or promiscuous binding through biochemical profiling and bioinformatic data analysis” (RSC Chemical Biology, 2023).
